# Where two headings read alike, the source gives them in different places.
# What was measured:
# Type in all cases: in vivo
# [1] = test system: sedge, umbrella (small-flower umbrella sedge, Cyperus difformis); experiment: Test B flooded paddy test; details: Cyperus difformis, 312 h; Flood, 250 g ai/ha; scale of 0 to 100, 0 is no effect, 100 is complete control; 13 to 15 d; read-out: Plant response rating, Sedge, Umbrella
# In short: (§1)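 Visual ratings, 0 meaning no effect and 100 complete control, were made relative to untreated controls 13–15 d after treatment in a greenhouse. Treatment was by addition to paddy water 3 cm above the soil, maintained for the test, on 2-leaf-stage plants.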
# rice (Oryza sativa) = experiment: Test B flooded paddy test; details: Oryza sativa, 312 h; Flood, 250 g ai/ha; scale of 0 to 100, 0 is no effect, 100 is complete control; 13 to 15 d; read-out: Plant response rating, Rice
# In short: as §1
# [2] = test system: foxtail, giant (giant foxtail, Setaria faberii); experiment: Test A pre-/postemergence greenhouse herbicide test; details: Setaria faberi, 240 h, 0 to 100 scale (0 no effect, 100 complete control), approx. 10 d, read-out: Plant response rating, Foxtail, Giant; for pest or weed control at 125 g/ha: 125 g ai/ha; for pest or weed control at 500 g/ha: 500 g ai/ha
# In short: (§2)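 Injury was scored visually on a 0–100 scale (100 = complete control) about 10 d after spraying, relative to untreated plants. Compounds were formulated in solvent plus surfactant and applied as soil spray preemergence or to 2–10 cm, one- to two-leaf seedlings postemergence.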
# corn (Zea mays) = experiment: as above; details: Zea mays, 240 h, 0 to 100 scale (0 no effect, 100 complete control), approx. 10 d; for Corn plant response rating (crop injury, 0 = no effect, 100 = complete kill) at 125 g/ha: 125 g ai/ha; for Corn plant response rating (crop injury, 0 = no effect, 100 = complete kill) at 500 g/ha: 500 g ai/ha
# In short: as §2
# [3] = test system: barnyardgrass (Echinochloa crus-galli); experiment: as above; details: Echinochloa crus-galli, 240 h, 0 to 100 scale (0 no effect, 100 complete control), approx. 10 d, read-out: Plant response rating, Barnyardgrass; for pest or weed control at 125 g/ha: 125 g ai/ha; for pest or weed control at 500 g/ha: 500 g ai/ha
# In short: as §2
# [4] = test system: wheat (Triticum aestivum); experiment: as above; details: Triticum aestivum, 240 h, 0 to 100 scale (0 no effect, 100 complete control), approx. 10 d, read-out: Plant response rating, Wheat; for plant injury at 125 g/ha: 125 g ai/ha; for plant injury at 500 g/ha: 500 g ai/ha
# In short: as §2
# [5] = test system: crabgrass, Large (large crabgrass, Digitaria sanguinalis); experiment: as above; details: Digitaria sanguinalis, 240 h, 0 to 100 scale (0 no effect, 100 complete control), approx. 10 d, read-out: Plant response rating, Crabgrass, Large; for pest or weed control at 125 g/ha: 125 g ai/ha; for pest or weed control at 500 g/ha: 500 g ai/ha
# In short: as §2
# [6] = test system: morningglory (Ipomoea spp.); experiment: as above; details: Ipomoea, 240 h, 0 to 100 scale (0 no effect, 100 complete control), approx. 10 d, read-out: Plant response rating, Morningglory; for pest or weed control at 125 g/ha: 125 g ai/ha; for pest or weed control at 500 g/ha: 500 g ai/ha
# In short: as §2
# [7] = test system: pigweed (Amaranthus retroflexus); experiment: as above; details: Amaranthus retroflexus, 240 h, 0 to 100 scale (0 no effect, 100 complete control), approx. 10 d, read-out: Plant response rating, Pigweed; for pest or weed control at 125 g/ha: 125 g ai/ha; for pest or weed control at 500 g/ha: 500 g ai/ha
# In short: as §2
# [8] = test system: velvetleaf (Abutilon theophrasti); experiment: as above; details: Abutilon theophrasti, 240 h, 0 to 100 scale (0 no effect, 100 complete control), approx. 10 d, read-out: Plant response rating, Velvetleaf; for pest or weed control at 125 g/ha: 125 g ai/ha; for pest or weed control at 500 g/ha: 500 g ai/ha
# In short: as §2
SMILES,pest or weed control at 250 g/ha [1] [%],plant injury at 250 g/ha (rice (Oryza sativa)) [%],"pest or weed control at 125 g/ha ([2]; post-emergence, Postemergence) [%]","pest or weed control at 500 g/ha ([2]; post-emergence, Postemergence) [%]","pest or weed control at 125 g/ha ([2]; pre-emergence, Preemergence) [%]","pest or weed control at 500 g/ha ([2]; pre-emergence, Preemergence) [%]","Corn plant response rating (crop injury, 0 = no effect, 100 = complete kill) at 125 g/ha (corn (Zea mays); post-emergence, Postemergence) [%]","Corn plant response rating (crop injury, 0 = no effect, 100 = complete kill) at 500 g/ha (corn (Zea mays); post-emergence, Postemergence) [%]","Corn plant response rating (crop injury, 0 = no effect, 100 = complete kill) at 125 g/ha (corn (Zea mays); pre-emergence, Preemergence) [%]","Corn plant response rating (crop injury, 0 = no effect, 100 = complete kill) at 500 g/ha (corn (Zea mays); pre-emergence, Preemergence) [%]","pest or weed control at 125 g/ha ([3]; post-emergence, Postemergence) [%]","pest or weed control at 500 g/ha ([3]; post-emergence, Postemergence) [%]","pest or weed control at 125 g/ha ([3]; pre-emergence, Preemergence) [%]","pest or weed control at 500 g/ha ([3]; pre-emergence, Preemergence) [%]","plant injury at 125 g/ha ([4]; post-emergence, Postemergence) [%]","plant injury at 500 g/ha ([4]; post-emergence, Postemergence) [%]","plant injury at 125 g/ha ([4]; pre-emergence, Preemergence) [%]","plant injury at 500 g/ha ([4]; pre-emergence, Preemergence) [%]","pest or weed control at 125 g/ha ([5]; post-emergence, Postemergence) [%]","pest or weed control at 500 g/ha ([5]; post-emergence, Postemergence) [%]",other results
"CCOc1cc(=O)n(-c2ccc(F)cc2)nc1C(=O)c1ccnc(C(F)(F)F)c1 [Compound 22, 5-ethoxy-2-(4-fluorophenyl)-6-[[2-(trifluoromethyl)-4-pyridinyl]carbonyl]-3(2H)-pyridazinone]",80,10,60,100,90,100,50,90,0,20,20,100,20,80,60,90,10,40,60,100,"pest or weed control at 125 g/ha ([5]; pre-emergence, Preemergence): 100%; pest or weed control at 500 g/ha ([5]; pre-emergence, Preemergence): 100%; pest or weed control at 125 g/ha ([6]; post-emergence, Postemergence): 40%; pest or weed control at 500 g/ha ([6]; post-emergence, Postemergence): 100%; pest or weed control at 125 g/ha ([6]; pre-emergence, Preemergence): 30%; pest or weed control at 500 g/ha ([6]; pre-emergence, Preemergence): 100%; pest or weed control at 125 g/ha ([7]; post-emergence, Postemergence): 100%; pest or weed control at 500 g/ha ([7]; post-emergence, Postemergence): 100%; pest or weed control at 125 g/ha ([7]; pre-emergence, Preemergence): 100%; pest or weed control at 500 g/ha ([7]; pre-emergence, Preemergence): 100%; pest or weed control at 125 g/ha ([8]; post-emergence, Postemergence): 20%; pest or weed control at 500 g/ha ([8]; post-emergence, Postemergence): 50%; pest or weed control at 125 g/ha ([8]; pre-emergence, Preemergence): 40%; pest or weed control at 500 g/ha ([8]; pre-emergence, Preemergence): 100%"
"CCOc1cc(=O)n(-c2ccc(F)cc2)nc1C(O)c1ccnc(C(F)(F)F)c1 (centres unmarked) [Compound 23, 5-ethoxy-2-(4-fluorophenyl)-6-[hydroxy[2-(trifluoromethyl)-4-pyridinyl]methyl]-3(2H)-pyridazinone]",70,10,50,90,100,100,50,90,0,20,20,100,20,100,80,90,0,90,60,100,"pest or weed control at 125 g/ha ([5]; pre-emergence, Preemergence): 100%; pest or weed control at 500 g/ha ([5]; pre-emergence, Preemergence): 100%; pest or weed control at 125 g/ha ([6]; post-emergence, Postemergence): 20%; pest or weed control at 500 g/ha ([6]; post-emergence, Postemergence): 60%; pest or weed control at 125 g/ha ([6]; pre-emergence, Preemergence): 100%; pest or weed control at 500 g/ha ([6]; pre-emergence, Preemergence): 100%; pest or weed control at 125 g/ha ([7]; post-emergence, Postemergence): 100%; pest or weed control at 500 g/ha ([7]; post-emergence, Postemergence): 100%; pest or weed control at 125 g/ha ([7]; pre-emergence, Preemergence): 100%; pest or weed control at 500 g/ha ([7]; pre-emergence, Preemergence): 100%; pest or weed control at 125 g/ha ([8]; post-emergence, Postemergence): 20%; pest or weed control at 500 g/ha ([8]; post-emergence, Postemergence): 70%; pest or weed control at 125 g/ha ([8]; pre-emergence, Preemergence): 80%; pest or weed control at 500 g/ha ([8]; pre-emergence, Preemergence): 100%"

# Source: US10202361B2, “Pyridazinones as herbicides” (E I DU PONT DE NEMOURS AND COMPANY, priority 2014, dated 2019)
